This is an account of results in US20060063930A1, “Compositions and methods comprising proteinase activated receptor antagonists” (priority 2004, published 2006).

Where a name gives a salt, the structure may show the parent alone. Where no end group is shown, it is not given here. [ ]: non-standard residue; d: D form. Phe(4-NH2) = Nc1ccc(C[C@H](N)C(=O)O)cc1; Sta = CC(C)C[C@H](N)[C@@H](O)CC(=O)O; Hyp = O=C(O)[C@@H]1C[C@@H](O)CN1; Nip = nipecotic acid residue; Orn = NCCC[C@H](N)C(=O)O; Dab = NCC[C@H](N)C(=O)O; Imid = not defined here; Dap = NC[C@H](N)C(=O)O

One assay concerns PAR-2. The experiment in a line: Inhibition of PAR-2 activating peptide (AP2) calcium signaling in cells pretreated with antagonist. Details: key to PAR-2 AP2 Signaling Treated/Control (T/C) / PAR-2 AP2 Signaling Treated/Control: AUC of calcium mobilization, treated ÷ control wells. Particulars: mimetic antagonists; AUC of calcium mobilization treated/control; initially screened at 1 mM compound. The assay is classed as cell-based, human. The protocol:
In order to assess the potential of peptides and molecules selected above to block PAR-2 signaling, cells were pretreated with potential antagonist peptides for a predetermined amount of time and were subsequently treated with various GPCR agonists. Confluent Lewis lung carcinoma (LLC) cells were loaded for 30-60 minutes with the fluorescent dye Fluo-4. Final concentration 4 uM Fluo-4, 0.02% pluronic acid in physiological buffer. Cells were then washed with assay buffer, (HBSS containing 1 mM CaCl2, 1 mM MgSO4, and 2.5 mM probenecid). Cells were stimulated with various doses of PAR-2 activating peptide, PAR-1 activating peptide or ATP. Fluorescence was monitored using a Wallac 1470 fluorescent plate reader. (See Al-ani et. al Journal of Pharmacology and Experimental Therapeutics 290:2, 753-760). Additional compound screening was performed using U87-MG human glioma cells. In this assay cells were labeled with FLIPR Calcium 3 dye (Component A), which was dissolved in 10 mls of Assay Buffer without Probenecid. Loading buffer was prepared by diluting Component A with an additional 90 mls of Assay Buffer without Probenecid, giving a total volume of a 100 ml. For plate loading, 11 mls of FLIPR Calcium 3 dye (Component A) is placed into a 15 ml conical tube+110 μl of 250 mM Probenecid, at a final in-well working volume of 2.5 mM. Finally, 50 μl of Calcium 3 dye was added wells containing 100 μl media, and incubated 1 hr, 37° C., 5% CO2. Calcium signaling was then measured using a Flexstation II (Molecular Devices) following manufacturer's instructions.
Potential antagonist compounds were initially screened at 1 mM compound concentration. Those compounds with activity were then subjected to additional confirmatory testing. Activity is reported as treated/controlled (T/C) where the area under the curve (AUC) of calcium mobilization plots in treated wells is divided by the AUC of calcium mobilization plots in control wells to generate a measure of inhibition.
With `NCCCCCC(=O)Nc1nc(CC(=O)NCC2CCCCC2)cs1` [ENMD-1560, 6-amino-hexanoic acid {4-[(cyclohexylmethyl-carbamoyl)-methyl]-thiazol-2-yl}-amide], the “PAR-2 AP2 Signaling Treated/Control” value was 0.48.
With `CC(C)CNC(=O)c1ccc(NCCCCN)nc1` [ENMD-1562, 6-(4-aminobutylamine)-3-(isobutyl)-nicotinoyl amide], the “PAR-2 AP2 Signaling Treated/Control” value was 0.57.
As to `CC(C)CCn1c(=O)n(CCc2ccc(NC(C)C)cc2)c2ccccc21` [ENMD-1563, 1-[4-(isopropylamine)-phenethyl]-3-isopentyl-1H-benzo[d]imidazole-2(3H)-one], the “PAR-2 AP2 Signaling Treated/Control” value was determined as 0.62.
In the case of `CC(C)Nc1ccc(CCn2c(=O)n(CCC3CCCCC3)c3ccccc32)cc1` [ENMD-1564, 1-[4-(isopropylamine)-phenethyl]-3-(2-cyclo-hexylethyl)-1H-benzo[d]imidazole-2(3H)-one], the “PAR-2 AP2 Signaling Treated/Control” value is on record as 1.16.
For the compound `NCCCCOc1ccc(OCc2ccccc2)cc1` [ENMD-1566, 4-(4-(benzyloxy)phenoxy)butan-1-amine hydrochloride], the “PAR-2 AP2 Signaling Treated/Control” value amounted to 0.01.
Regarding `Cl.NCCCOc1ccc(OCC2CCCCC2)cc1` [ENMD-1567, 3-(4-(cyclohexylmethoxy)phenoxy)propan-1-amine hydrochloride], the “PAR-2 AP2 Signaling Treated/Control” value is 0.08.
Turning to `NCCCCC(=O)Nc1ccc(C(=O)NCC2CCCCC2)cc1` [ENMD-1568, 4-(5-aminopentanamide)-N-(cyclohexylmethyl)-benzamide], the “PAR-2 AP2 Signaling Treated/Control” value stood at 0.92.
As for `CC(C)CNC(=O)c1cccn1CCCCCCN` [ENMD-1569, 1-(6-aminohexyl)-2-[N′-isobutyl]-pyrrole carboxamide], the “PAR-2 AP2 Signaling Treated/Control” value came to 0.77.
The same measure, in the same setting: next, `NCCCCCCn1cccc1C(=O)NCC1CCCCC1` [ENMD-1570]: 0.05; `NCCCCNC(=O)c1cnc(NCC2CCCCC2)cn1` [ENMD-1571, 4-aminobutyl-6-cyclohexanemethylamino-2-pyrazine amide]: 0.81; `O=C(NCCC1CCNCC1)c1cnc(NCC2CCCCC2)cn1` [ENMD-1572, 4-(piperidinethyl)-6-cyclohexanemethylamino-2-pyrazine amide]: 0.10.
Consider `CC(C)CCn1c(=O)n(CCc2ccc(N)cc2)c2ccccc21` [ENMD-1573, 1-(4-aminophenethyl)-3-isopentyl-1H-benzo[d]imidazole-2(3H)-one], for which the “PAR-2 AP2 Signaling Treated/Control” value is given as 0.01.
Consider `Nc1ccc(CCn2c(=O)n(CCC3CCCCC3)c3ccccc32)cc1` [ENMD-1574, 1-(4-aminophenethyl)-3-(2-cyclohexylethyl)-1H-benzo[d]imidazole-2(3H)-one], for which the “PAR-2 AP2 Signaling Treated/Control” value was found to be 0.01.
Still for that read-out and setting: next, `CC(C)CC(=O)N1CC2CN(C(=O)Cc3ccc(N)cc3)CC2C1` (stereo not drawn) [ENMD-1763]: 0.83; `CC(C)CC(=O)N1CC2CN(C(=O)CCCCCN)CC2C1` (stereo not drawn) [ENMD-1764]: 0.96.
`NCCCCCNC(=O)c1ccc(C(=O)NCC2CCCCC2)cc1` [ENMD-1766, N^1-(5-aminopentyl)-N-4-(cyclohexylmethyl)-terephthalamide]: the “PAR-2 AP2 Signaling Treated/Control” value turned out to be 0.73.
With `Cl.O=C(CC1CCCCC1)N1CCN(C(=O)C2CCNCC2)CC1` [ENMD-1770, N^1-2-cyclohexylethanoyl-N-4-piperidine-4-carbonyl-piperazine hydrochloride], the “PAR-2 AP2 Signaling Treated/Control” value worked out at 0.91.
With `Cl.O=C(CC1CCCCC1)Nc1ccc(NC(=O)C2CCCNC2)cc1` (stereo not drawn) [ENMD-1771, N-(4-(2-cyclohexylacetamido)phenyl) piperidine-3-carboxamide hydrochloride], the “PAR-2 AP2 Signaling Treated/Control” value was determined as 0.05.
With `Cl.O=C(CC1CCCCC1)Nc1ccc(NC(=O)C2CCNCC2)cc1` [ENMD-1772, N-(4-(2-cyclohexylacetamido)phenyl) piperidine-4-carboxamide hydrochloride], the “PAR-2 AP2 Signaling Treated/Control” value came out at 0.73.
As for `Cl.O=C(CC1CCCCC1)N1CCN(C(=O)C2CCCNC2)CC1` (stereo not drawn) [ENMD-1773, N1-2-cyclohexylethanoyl-N-4-piperidine-3-carbonyl-piperazine hydrochloride], the “PAR-2 AP2 Signaling Treated/Control” value came out at 0.85.
`Cl.N[C@@H]1CCC[C@H](C(=O)N2CCN(C(=O)CC3CCCCC3)CC2)C1` [ENMD-1774, N^1-2-cyclohexylethanoyl-N-4-cis-3-amino-cyclohexane-carbonyl piperazine hydrochloride]: the “PAR-2 AP2 Signaling Treated/Control” value amounted to 0.75.
Consider `NCCCCCNc1cnc(C(=O)NCC2CCCCC2)cn1` [ENMD-1775, cyclohexylmethyl-6-(5-aminopentaneamino)-2-pyrazine amide], for which the “PAR-2 AP2 Signaling Treated/Control” value is recorded as 0.90.
Take `NCCCCCC(=O)N1CC2CN(C(=O)CC3CCCCC3)CC2C1` (stereo not drawn) [ENMD-1776]: the “PAR-2 AP2 Signaling Treated/Control” value was 0.82.
The same measure, in the same setting: with `Nc1ccc(CC(=O)N2CC3CN(C(=O)CC4CCCCC4)CC3C2)cc1` (stereo not drawn) [ENMD-1777, 1-(2-(2-(4-aminophenyl)acetyl-hexahydro-pyrrolo[3,4-c]pyrrol-5-(1H)-yl)-2-cyclohexyl)ethan-1-one] the figure was 0.64; with `NCCC1CCN(c2cnc(C(=O)NCCC3CCCCC3)cn2)CC1` [ENMD-1778, cyclohexylethyl-6-(4-aminoethylpiperdine)-2-pyrazine amide], 0.05.
Still for that read-out and setting: next, `Cl.N[C@H]1CC[C@H](C(=O)N2CCN(C(=O)CC3CCCCC3)CC2)C1` [ENMD-1779, N1-2-cyclohexylethanoyl-N-4-(1R,3R)-1-amino-cyclopentane-3-carbonyl piperazine hydrochloride]: 0.89; `Cl.O=C(CC1CCCCC1)N1CCN(C(=O)C2CNCCO2)CC1` (stereo not drawn) [ENMD-1780, N^1-2-cyclohexylethanoyl-N-4-morpholine-2-carbonyl-piperazine hydrochloride]: 0.86; `Cl.N[C@H]1CC[C@@H](C(=O)N2CCN(C(=O)CC3CCCCC3)CC2)CC1` [ENMD-1781, N^1-2-cyclohexylethanoyl-N-4-cis-4-amino-cyclohexane-carbonyl piperazine hydrochloride]: 0.71.

Still in this assay, the particulars now being: mimetic antagonists; AUC of calcium mobilization treated/control; initially screened at 1 mM compound; hydrochloride.
In the case of `CC(C)CC(=O)Nc1nc(CC(=O)NCCCCCN)cs1` [ENMD-1561, N-{4-[(5-Amino-pentylcarbamoyl)-methyl]-thiazol-2-yl}-3-methyl-butyramide hydrochloride], the “PAR-2 AP2 Signaling Treated/Control” value was 0.89.

The assay is the same for the next values; noted with them: peptides; AUC of calcium mobilization treated/control; initially screened at 1 mM compound.
As to “IG-Dab (Ile-Gly-[Dab]) [ENMD-1024, Dab=diamino butanoic acid]”, the “PAR-2 AP2 Signaling Treated/Control (T/C)” value is 0.27.
On to “IG-Dap (Ile-Gly-[Dap]) [ENMD-1025, Dap=diamino proprionic acid]”, for which the “PAR-2 AP2 Signaling Treated/Control (T/C)” value is given as 0.31.
Consider IG-Orn (Ile-Gly-[Orn]) [ENMD-1029], for which the “PAR-2 AP2 Signaling Treated/Control (T/C)” value is reported as 0.42.
On to IG-dK (Ile-Gly-[dK]) [ENMD-1087], for which the “PAR-2 AP2 Signaling Treated/Control (T/C)” value was determined as 0.33.
Turning to IGK-amide (Ile-Gly-Lys-NH2) [ENMD-1021], the “PAR-2 AP2 Signaling Treated/Control (T/C)” value is 0.67.
For the compound IGR [ENMD-1023], the “PAR-2 AP2 Signaling Treated/Control (T/C)” value was 0.23.
As to L-HyP-GK (L[Hyp]GK) [ENMD-1061], the “PAR-2 AP2 Signaling Treated/Control (T/C)” value is on record as 1.16.
Take L-HyP-K (Leu-[Hyp]-Lys) [ENMD-1060]: the “PAR-2 AP2 Signaling Treated/Control (T/C)” value was 1.29.
Still for that read-out and setting: with “L-Imid-GK (L[Imid]GK; reading uncertain; also: printed as L-Imid-GK) [ENMD-1063]” the figure was 0.94.
Same read-out and setting: with “L-Imid-K (Leu-[Imid]-Lys; reading uncertain; also: printed as L-Imid-K) [ENMD-1062]” the figure was 0.94; with L-NiP-K (Leu-[Nip]-Lys) [ENMD-1058], 1.58.
For L-Nip-GK (L[Nip]GK) [ENMD-1059], the “PAR-2 AP2 Signaling Treated/Control (T/C)” value was found to be 0.97.
For the compound L-Sta-GK (L[Sta]GK) [ENMD-1057], the “PAR-2 AP2 Signaling Treated/Control (T/C)” value worked out at 1.40.
Still for that read-out and setting: with L-Sta-K (Leu-[Sta]-Lys) [ENMD-1056] the figure was 1.35; with “LIG-(4-aminoF) (LIG[Phe(4-NH2)]) [ENMD-1030]”, 0.05.
On to LIG-Dab (LIG[Dab]) [ENMD-1026], for which the “PAR-2 AP2 Signaling Treated/Control (T/C)” value was 0.23.
Consider LIG-Dap (LIG[Dap]) [ENMD-1027], for which the “PAR-2 AP2 Signaling Treated/Control (T/C)” value is 0.30.
With “LIG-Orn (LIG[Orn]) [ENMD-1028, Orn=ornithine]”, the “PAR-2 AP2 Signaling Treated/Control (T/C)” value worked out at 0.36.
Regarding LIG-dK (LIG[dK]) [ENMD-1384], the “PAR-2 AP2 Signaling Treated/Control (T/C)” value was 0.16.
